Biological target: CHK2 (Homo sapiens, UniProt O96017)
Assay: HotSpot radiometric kinase assay, CHK2
Type: biochemical
Settings: compound 0.5 μM, 10 μM ATP; Fig. 4b

Sequence of CHK2 (O96017 whole entry): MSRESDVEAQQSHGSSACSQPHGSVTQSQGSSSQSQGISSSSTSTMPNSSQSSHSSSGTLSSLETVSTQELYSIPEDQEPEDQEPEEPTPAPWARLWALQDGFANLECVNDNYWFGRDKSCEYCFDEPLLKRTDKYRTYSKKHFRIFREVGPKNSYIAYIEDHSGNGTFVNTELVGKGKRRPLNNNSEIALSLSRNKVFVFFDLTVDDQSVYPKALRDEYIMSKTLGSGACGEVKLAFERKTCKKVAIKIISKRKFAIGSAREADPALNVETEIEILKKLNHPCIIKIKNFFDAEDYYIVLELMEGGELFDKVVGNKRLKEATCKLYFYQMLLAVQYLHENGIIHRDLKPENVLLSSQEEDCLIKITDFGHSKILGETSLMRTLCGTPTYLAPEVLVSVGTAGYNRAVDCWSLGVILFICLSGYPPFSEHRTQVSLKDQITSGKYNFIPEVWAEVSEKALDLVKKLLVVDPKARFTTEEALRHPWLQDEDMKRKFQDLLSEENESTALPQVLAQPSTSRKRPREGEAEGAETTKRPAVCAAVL

SMILES: COc1cc2ncnc(Nc3ccc(OCc4ccccc4)cc3)c2cc1OC [EGFR/ErbB-2 Inhibitor, 4-(4-benzyloxyanilino)-6,7-dimethoxyquinazoline]
- inhibition of CHK2: potent inhibition

Reference: article PMC3230241 (Nature biotechnology, 2011)
